Test results from PubChem BioAssay (NCI).
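Cultured in 96-well plates, cells were exposed to test compound for 48 hours across five concentrations. At the GI50, growth is halved. TGI: total growth inhibition.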

How the values were obtained:
Assay in all cases: NCI tumour cell line growth inhibition, 48 h
NCI-H460 lung = system: NCI-H460 lung
HOP-92 NSCLC = system: HOP-92 NSCLC
K-562 leukemia = system: K-562 leukemia
COLO 205 colon = system: COLO 205 colon
SK-MEL-2 melanoma = system: SK-MEL-2 melanoma
TK-10 renal = system: TK-10 renal
SF-268 CNS = system: SF-268 CNS
SF-539 CNS = system: SF-539 CNS
EKVX NSCLC = system: EKVX NSCLC
CAKI-1 renal = system: CAKI-1 renal

SMILES	TGI (NCI-H460 lung) [µM]	TGI (HOP-92 NSCLC) [µM]	TGI (K-562 leukemia) [µM]	TGI (COLO 205 colon) [µM]	TGI (SK-MEL-2 melanoma) [µM]	TGI (TK-10 renal) [µM]	TGI (SF-268 CNS) [µM]	TGI (SF-539 CNS) [µM]	TGI (EKVX NSCLC) [µM]	TGI (CAKI-1 renal) [µM]	GI50 (NCI-H460 lung) [µM]	GI50 (HOP-92 NSCLC) [µM]	GI50 (K-562 leukemia) [µM]	GI50 (COLO 205 colon) [µM]	GI50 (SK-MEL-2 melanoma) [µM]	GI50 (TK-10 renal) [µM]	GI50 (SF-268 CNS) [µM]	GI50 (SF-539 CNS) [µM]	GI50 (EKVX NSCLC) [µM]	GI50 (CAKI-1 renal) [µM]
COc1cc(/C=N\O[Si](C)(C)C(C)(C)C)ccc1O[Si](C)(C)C(C)(C)C	> 100	60.1	> 100	> 100	> 100	> 100	> 100	> 100	> 100	> 100	–	–	–	–	–	–	–	–	–	–
Clc1nc(Cl)c2ncn(Cc3ccccc3Cn3cnc4c(Cl)nc(Cl)nc43)c2n1	11.7	4.16	6.8	> 26.3	27.8	11	12.3	0.719	3.02	6.41	3.07	1.9	2.6	2.89	8.96	2.93	3.05	0.16	1.36	2.32
COc1cc(/C=C/C(=O)C(C(=O)/C=C/c2ccc(OC(=O)CCNC34CC5CC(CC(C5)C3)C4)c(OC)c2)C(=O)CCNC23CC4CC(CC(C4)C2)C3)ccc1OC(=O)CCNC12CC3CC(CC(C3)C1)C2 (centres undefined)	10.2	31.4	4.97	17.8	> 100	18.7	10.9	5.01	8.97	> 100	2.98	4.75	1.99	4.27	3.53	3.77	2.7	2.27	2.95	5.72
Cn1cc(S(=O)(=O)N2CCC3=Cc4c(cnn4-c4ccc(F)cc4)C[C@]3(C(=O)c3cc(C(F)(F)F)ccn3)C2)cn1	> 100	> 100	> 100	> 100	> 100	> 100	> 100	> 100	> 100	> 100	> 100	6.57	> 100	> 100	88.2	> 100	> 100	95.8	7.98	60.1
CC(C)(C)c1cc(C(=O)/C=C/c2ccc(C(=O)O)cc2)cc(C(C)(C)C)c1	7.36	19.7	> 100	4.73	12.7	11.9	6.82	2.97	16.9	15.5	–	–	–	–	–	–	–	–	–	–
CCCCCCCCCCCCCCCCCCC1=C(O)C(=O)C=C(OC)C1=O	> 100	> 100	–	> 100	76.5	> 100	> 100	> 100	> 100	> 100	–	–	–	–	–	–	–	–	–	–
NCCCn1c2c(c3ccccc3c1=O)C(=O)c1ccccc1-2	9.22	19.1	10.4	2.88	12.5	4.19	8.55	1.13	2.9	0.364	0.0647	2.6	0.0857	0.105	4.31	0.425	0.498	0.104	0.539	0.0435
COC(=O)c1c[nH]cc1CCCCc1c[nH]cc1C(=O)OC	> 100	> 100	> 100	> 100	> 100	> 100	> 100	> 100	> 100	> 100	–	–	–	–	–	–	–	–	–	–
Cc1noc2c1-c1ccccc1C(c1ccc(Cl)cc1)=N[C@H]2CC(N)=O	> 100	> 100	> 100	> 51.7	> 100	> 100	> 100	> 100	> 100	> 100	16.7	0.54	4.67	0.646	18.1	0.486	33.8	5.17	14	0.368
Cn1c(=S)c2[nH]c(SCCCc3ccccc3)nc2n(C)c1=O	42.1	> 100	> 100	25.4	> 100	78.9	> 100	> 100	79.3	> 100	–	–	–	–	–	–	–	–	–	–
NC(=O)c1cn(Cc2ccccc2)c(=O)n1Cc1ccccc1	> 100	> 100	> 100	> 100	> 100	> 100	> 100	> 100	> 100	> 100	–	–	–	–	–	–	–	–	–	–
CC(C)(C)OC(=O)N1C2CCCC23O[C@@H]1c1cc2c(cc1C3=O)OCO2 (some centres undefined)	> 100	> 100	> 100	–	> 100	> 100	> 100	55.4	> 100	87.1	–	–	–	–	–	–	–	–	–	–
Cc1ccc(C)c(N2C(=O)C(=O)C(c3nc4ccccc4o3)/C(=N\NC(=O)c3ccccc3O)C2=O)c1 (centres undefined)	–	> 100	85.6	72.2	> 100	> 100	> 100	65.2	> 100	18.5	–	–	–	–	–	–	–	–	–	–
O=C1c2ccccc2C(=O)N1C/C=N/NS(=O)(=O)c1ccc(Br)cc1	> 100	> 100	> 100	> 100	> 100	> 100	> 100	> 100	> 100	> 100	–	–	–	–	–	–	–	–	–	–
COc1cc(C(=O)O[C@H](C(N)=O)[C@]2(C)CO2)c2cccc(C)c2c1	> 32.1	2.28	–	11.4	0.0478	–	> 100	< 0.0465	4.61	–	0.395	0.654	–	–	< 0.01	< 0.0406	–	< 0.0121	0.35	< 0.0211
COc1cc2c(cc1OC)C1Cc3cc(OC)c(OC)cc3N1CC2 (centres undefined)	> 100	> 100	> 100	52.1	> 100	50.5	> 100	–	89.5	88.5	–	–	–	–	–	–	–	–	–	–
COc1ccc(/C=C/c2cnccn2)cc1OC	> 10	> 10	–	> 10	> 10	> 10	> 10	> 10	> 10	> 10	–	–	–	–	–	–	–	–	–	–
